Assay results published in BindingDB's records for doi:10.1016/s0960-894x(03)00195-1 (Abbott Laboratories, 2003).

Assay: Inhibition of transfer of […] to biotin K-ras peptide (KKSKTKCVLL) catalyzed by bovine GGTase-I

SMILES	IC50 [nM]
Cn1cncc1[C@H](OCc1nc(Cl)c(C#N)cc1-c1cccc(Cl)c1)c1ccc(C#N)cc1	2800
Cn1cncc1C(OCc1nc(N2CCN(C(=O)OC(C)(C)C)CC2)c(C#N)cc1-c1cccc(Cl)c1)c1ccc(C#N)cc1 (centres undefined)	650
Cn1cncc1C(OCc1ccc(C#N)nc1-c1cccc(OC(F)(F)F)c1)c1ccc(C#N)cc1 (centres undefined)	510
CC(=O)N1CCN(c2nc(COC(c3ccc(C#N)cc3)c3cncn3C)c(-c3cccc(Cl)c3)cc2C#N)CC1 (centres undefined)	2100
Cn1cncc1C(OCc1ccc(C#N)c(-c2ccc3ccccc3c2)n1)c1ccc(C#N)cc1 (centres undefined)	2600
Cn1cncc1C(OCc1ccc(C#N)c(-c2cccc(Cl)c2)n1)c1ccc(C#N)cc1 (centres undefined) [2-(3-Chloro-phenyl)-6-[(4-cyano-phenyl)-(3-methyl-3H-imidazol-4-yl)-methoxymethyl]-nicotinonitrile]	1100
Cn1cncc1C(OCc1ccc(C#N)cc1)c1ccc(C#N)c(-c2cccc3cccnc23)c1 (centres undefined) [4-[(4-Cyano-benzyloxy)-(3-methyl-3H-imidazol-4-yl)-methyl]-2-quinolin-8-yl-benzonitrile]	103
COc1cccc(-c2cc(C#N)ccc2COC(c2ccc(C#N)cc2)c2cncn2C)c1 (centres undefined) [4-{[(4-cyanophenyl)(1-methyl-1H-imidazol-5-yl)methoxy]methyl}-3-(3-methoxyphenyl)benzonitrile]	3900
Cn1cncc1C(OCc1nc(N2CCC(C(N)=O)CC2)c(C#N)cc1-c1cccc(Cl)c1)c1ccc(C#N)cc1 (centres undefined) [5'-(3-Chloro-phenyl)-3'-cyano-6'-[(4-cyano-phenyl)-(3-methyl-3H-imidazol-4-yl)-methoxymethyl]-3,4,5,6-tetrahydro-2H-[1,2']bipyridinyl-4-carboxylic acid amide]	2100
Cn1cncc1C(OCc1nc(N2CCC(O)CC2)c(C#N)cc1-c1cccc(Cl)c1)c1ccc(C#N)cc1 (centres undefined) [5'-(3-Chloro-phenyl)-6'-[(4-cyano-phenyl)-(3-methyl-3H-imidazol-4-yl)-methoxymethyl]-4-hydroxy-3,4,5,6-tetrahydro-2H-[1,2']bipyridinyl-3'-carbonitrile]	830
CN1CCN(c2nc(COC(c3ccc(C#N)cc3)c3cncn3C)c(-c3cccc(Cl)c3)cc2C#N)CC1 (centres undefined) [5-(3-Chloro-phenyl)-6-[(4-cyano-phenyl)-(3-methyl-3H-imidazol-4-yl)-methoxymethyl]-2-(4-methyl-piperazin-1-yl)-nicotinonitrile]	2400
Cn1cncc1C(OCc1nc(N2CCOCC2)c(C#N)cc1-c1cccc(Cl)c1)c1ccc(C#N)cc1 (centres undefined) [5-(3-Chloro-phenyl)-6-[(4-cyano-phenyl)-(3-methyl-3H-imidazol-4-yl)-methoxymethyl]-2-morpholin-4-yl-nicotinonitrile]	1800
Cn1cncc1C(OCc1ccc(C#N)nc1-c1ccc2c(c1)OC(F)(F)O2)c1ccc(C#N)cc1 (centres undefined) [5-[(4-Cyano-phenyl)-(3-methyl-3H-imidazol-4-yl)-methoxymethyl]-6-(2,2-difluoro-benzo[1,3]dioxol-5-yl)-pyridine-2-carbonitrile]	1100
Cn1cncc1C(OCc1ccc(C#N)nc1-c1ccc(OC(F)(F)F)cc1)c1ccc(C#N)cc1 (centres undefined) [5-[(4-Cyano-phenyl)-(3-methyl-3H-imidazol-4-yl)-methoxymethyl]-6-(4-trifluoromethoxy-phenyl)-pyridine-2-carbonitrile]	1200
Cn1cncc1C(OCc1ccc(C#N)nc1-c1ccc2ccccc2c1)c1ccc(C#N)cc1 (centres undefined) [5-[(4-Cyano-phenyl)-(3-methyl-3H-imidazol-4-yl)-methoxymethyl]-6-naphthalen-2-yl-pyridine-2-carbonitrile]	5500
Cn1cncc1C(OCc1ccc(C#N)cn1)c1ccc(C#N)c(-c2cccc3ccccc23)c1 (centres undefined) [A-315493]	24

Continued, values first:

IC50 [nM]	SMILES
4200	Cn1cncc1C(OCc1ncc(C#N)cc1-c1cccc(Cl)c1)c1ccc(C#N)cc1 (centres undefined)
4800	Cn1cncc1C(OCc1ccc(C#N)nc1-c1cc(F)cc(F)c1)c1ccc(C#N)cc1 (centres undefined)
960	Cn1cncc1C(OCc1ccc(C#N)cc1-c1cc(Cl)cc(Cl)c1)c1ccc(C#N)nc1 (centres undefined) [5-[(3',5'-Dichloro-5-cyano-biphenyl-2-ylmethoxy)-(3-methyl-3H-imidazol-4-yl)-methyl]-pyridine-2-carbonitrile]
8600	Cn1cncc1C(OCc1ccc(C#N)cc1-c1ccc(F)c(Cl)c1)c1ccc(C#N)nc1 (centres undefined) [5-[(3'-Chloro-5-cyano-4'-fluoro-biphenyl-2-ylmethoxy)-(3-methyl-3H-imidazol-4-yl)-methyl]-pyridine-2-carbonitrile]
8620	Cn1cncc1C(OCc1ccc(C#N)cc1-c1cccc(Cl)c1)c1ccc(C#N)nc1 (centres undefined) [5-[(3'-Chloro-5-cyano-biphenyl-2-ylmethoxy)-(3-methyl-3H-imidazol-4-yl)-methyl]-pyridine-2-carbonitrile]
1400	Cn1cncc1C(OCc1ccc(C#N)nc1-c1cc(Cl)cc(Cl)c1)c1ccc(C#N)cc1 (centres undefined) [5-[(4-Cyano-phenyl)-(3-methyl-3H-imidazol-4-yl)-methoxymethyl]-6-(3,5-dichloro-phenyl)-pyridine-2-carbonitrile]
990	Cn1cncc1C(OCc1ccc(C#N)cc1-c1cccc(OC(F)(F)F)c1)c1ccc(C#N)nc1 (centres undefined) [5-[(5-Cyano-3'-trifluoromethoxy-biphenyl-2-ylmethoxy)-(3-methyl-3H-imidazol-4-yl)-methyl]-pyridine-2-carbonitrile]
1700	Cn1cncc1C(OCc1ccc(C#N)nc1-c1cccc(Cl)c1)c1ccc(C#N)cc1 (centres undefined) [6-(3-Chloro-phenyl)-5-[(4-cyano-phenyl)-(3-methyl-3H-imidazol-4-yl)-methoxymethyl]-pyridine-2-carbonitrile]
